Measurements: patent publication US11332479B2, “Imidazooxazole derivative having antitumor effect, and pharmaceutical composition including same” (KOREA INSTITUTE OF SCIENCE AND TECHNOLOGY, priority 2016, dated 2022)
One block for each compound: values may come before it.

Assays:
V600E-B-RAF = V600E-B-RAF (Homo sapiens (Human), UniProt P15056, V600E); experiment: Protein kinase enzymatic activity (Reaction Biology kinase hotspot), V600E-B-RAF; format: biochemical; details: for IC50: read-out: Inhibitory effect against kinase activity of V600E-B-RAF (IC50); for Inhibitory effect against enzymatic activity of V600E-RAF, in words: compared with GW5074 and vemurafenib
Procedure: (§1) Reaction biology kinase hotspot service (http://www.reactionbiology.com) was used to measure IC50. In a final reaction volume of 25 μL, kinase (5 mU to 10 mU) was incubated with 25 mM Tris (pH 7.5), 0.02 mM EGTA, 0.66 mg/ml of myelin basic protein, 10 mM magnesium acetate, and [^33P-ATP] (specific activity of about 500 CPM/pmol, concentration as required). The reaction was initiated by addition of Mg-ATP mix. After incubation for 40 min at room temperature, the reaction was stopped by addition of 5 μl of a 3% phosphoric acid solution. 10 μL of the reaction was then spotted onto a P30 filtermat and washed three times for 5 minutes in 75 mM phosphoric acid and once in methanol prior to drying and scintillation counting.

B-RAF = B-RAF (Homo sapiens (Human), UniProt P15056); experiment: Protein kinase enzymatic activity (Reaction Biology kinase hotspot), B-RAF; format: biochemical; details: for IC50: read-out: Inhibitory effect against kinase activity of B-RAF (IC50); for Inhibitory effect against enzymatic activity of B-RAF, in words: compared with GW5074 and vemurafenib
Procedure: as §1

C-RAF = C-RAF (Homo sapiens (Human), UniProt P04049); experiment: Protein kinase enzymatic activity (Reaction Biology kinase hotspot), C-RAF; format: biochemical; details: for IC50: read-out: Inhibitory effect against kinase activity of C-RAF (IC50); for Inhibitory effect against enzymatic activity of C-RAF, in words: compared with GW5074 and vemurafenib
Procedure: as §1

[1] = test system: A375P cell line xenograft; experiment: Tumor-inhibitory effects in melanoma xenograft mouse model; format: in vivo, nude mice
Procedure: In this experiment, A375P cell line which is a human-derived malignant melanoma cell line was subcutaneously administered to nude mice to prepare xenograft models, and the test material (compound 2II) was administered to the xenograft models to evaluate anti-cancer effects (G1: an excipient control group, G2: a group administered with 20 mg/kg/day of the test material, and G3: a group administered with 50 mg/kg/day of the test material).

B-RAF, sequence (P15056 whole entry): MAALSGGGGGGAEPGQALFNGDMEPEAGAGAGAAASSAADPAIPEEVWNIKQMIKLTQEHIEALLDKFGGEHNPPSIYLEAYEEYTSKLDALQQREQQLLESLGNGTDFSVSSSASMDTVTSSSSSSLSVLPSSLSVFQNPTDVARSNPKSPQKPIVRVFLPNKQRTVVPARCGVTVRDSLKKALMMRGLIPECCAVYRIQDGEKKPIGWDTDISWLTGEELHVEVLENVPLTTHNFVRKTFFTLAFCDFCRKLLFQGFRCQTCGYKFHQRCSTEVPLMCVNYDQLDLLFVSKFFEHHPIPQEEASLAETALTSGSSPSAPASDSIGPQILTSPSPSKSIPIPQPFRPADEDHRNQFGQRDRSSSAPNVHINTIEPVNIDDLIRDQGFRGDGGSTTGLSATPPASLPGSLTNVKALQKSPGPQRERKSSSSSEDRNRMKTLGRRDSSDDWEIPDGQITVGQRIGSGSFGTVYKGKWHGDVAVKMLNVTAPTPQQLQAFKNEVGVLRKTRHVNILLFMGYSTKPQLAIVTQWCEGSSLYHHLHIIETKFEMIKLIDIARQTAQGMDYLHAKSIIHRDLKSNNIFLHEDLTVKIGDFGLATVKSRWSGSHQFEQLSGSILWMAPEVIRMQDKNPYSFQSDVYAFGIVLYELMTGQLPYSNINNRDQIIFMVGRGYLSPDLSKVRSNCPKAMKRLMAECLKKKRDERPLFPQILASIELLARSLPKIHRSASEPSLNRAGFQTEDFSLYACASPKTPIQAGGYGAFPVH
C-RAF, sequence (P04049 whole entry): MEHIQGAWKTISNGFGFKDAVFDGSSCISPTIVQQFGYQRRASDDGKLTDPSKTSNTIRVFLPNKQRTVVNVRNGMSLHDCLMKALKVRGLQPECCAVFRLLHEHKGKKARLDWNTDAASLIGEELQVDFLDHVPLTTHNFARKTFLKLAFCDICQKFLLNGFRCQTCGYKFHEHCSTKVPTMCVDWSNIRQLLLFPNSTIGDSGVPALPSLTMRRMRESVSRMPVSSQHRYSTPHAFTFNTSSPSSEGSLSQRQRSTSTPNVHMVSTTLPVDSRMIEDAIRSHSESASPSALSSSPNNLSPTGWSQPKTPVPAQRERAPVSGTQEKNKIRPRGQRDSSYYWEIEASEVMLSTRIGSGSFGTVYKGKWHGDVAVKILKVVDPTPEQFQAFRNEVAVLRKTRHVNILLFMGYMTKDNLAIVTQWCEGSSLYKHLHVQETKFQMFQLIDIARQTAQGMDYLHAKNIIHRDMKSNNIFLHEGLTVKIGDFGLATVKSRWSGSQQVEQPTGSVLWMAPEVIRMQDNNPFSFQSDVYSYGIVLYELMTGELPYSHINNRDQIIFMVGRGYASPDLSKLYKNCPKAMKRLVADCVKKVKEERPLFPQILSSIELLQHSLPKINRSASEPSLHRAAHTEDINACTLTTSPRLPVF
V600E-B-RAF, sequence (P15056 whole entry V600E): as the sequence (P15056 whole entry) above, with V600E counted along it

Compound: Nc1cc(-c2nc3sccn3c2-c2ccnc(NCCCNS(=O)(=O)c3ccc(F)cc3)n2)ccc1F [Compound 52III, N-(3-((4-(6-(3-amino-4-fluorophenyl)imidazo[2,1-b]thiazol-5-yl)pyrimidin-2-yl)amino)propyl)-4-fluorobenzenesulfonamide]
IC50 (B-RAF): 2.68 nM
IC50 (C-RAF): 5.41 nM
IC50 (V600E-B-RAF): 1.03 nM

Compound: CCN1CCN(CCNc2nccc(-c3c(-c4ccc(F)c(O)c4)nc4sccn34)n2)S1(=O)=O [Compound 31II]
IC50 (B-RAF): 4.19 nM
IC50 (C-RAF): 7.83 nM
IC50 (V600E-B-RAF): 0.98 nM

Compound: O=S(=O)(NCCCNc1nccc(-c2c(-c3ccc(F)c(O)c3)nc3occn23)n1)c1ccc(Cl)cc1 [70 IV, 4-chloro-N-(3-(4-(6-(4-fluoro-3-hydroxyphenyl)imidazo[2,1-b]oxazol-5-yl)pyrimidin-2-ylamino)propyl)benzenesulfonamide]
IC50 (V600E-B-RAF): 0.15 nM

Compound: CCN1CCN(CCNc2nccc(-c3c(-c4cccc(O)c4)nc4occn34)n2)S1(=O)=O [Compound 2II, 2-Ethyl-5-(2-((4-(6-(3-hydroxylphenyl)imidazo[2,1-b]oxazol-5-yl)pyrimidin-2-yl)amino)ethyl)-1,2,5-thiadiazolidine 1,1-dioxide]
Inhibitory effect against enzymatic activity of B-RAF, in words (B-RAF): excellent inhibitory effects
Inhibitory effect against enzymatic activity of C-RAF, in words (C-RAF): excellent inhibitory effects
IC50 (C-RAF): 0.75 nM
General symptoms and deaths ([1]; 20 and 50 mg/kg/day, twice per week for 3 weeks): no deaths or no abnormalities in general symptoms were observed
Tumor size, difference between all experimental groups ([1]; G1, G2, G3): no significant difference
Body weight compared with control group (G1) ([1]; G3, 50 mg/kg/day, 14 days and 21 days after administration): significantly low
Increase of the tumor size ([1]; groups administered with 20 and 50 mg/kg/day): inhibited in a dose-dependent manner
Inhibitory effect against enzymatic activity of V600E-RAF, in words (V600E-B-RAF): excellent inhibitory effects

Compound: COc1cc(-c2nc3occn3c2-c2ccnc(NCCCNS(=O)(=O)c3ccc(Cl)cc3)n2)ccc1F [60 IV, 4-chloro-N-(3-(4-(6-(4-fluoro-3-methoxyphenyl)imidazo[2,1-b]oxazol-5-yl)pyrimidin-2-ylamino)propyl)benzenesulfonamide]
IC50 (V600E-B-RAF): 11.3 nM

Compound: O=S(=O)(NCCNc1nccc(-c2c(-c3ccc(F)c(O)c3)nc3occn23)n1)c1ccc(Cl)cc1 [65 IV, 4-chloro-N-(2-(4-(6-(4-fluoro-3-hydroxyphenyl)imidazo[2,1-b]oxazol-5-yl)pyrimidin-2-ylamino)ethyl)benzenesulfonamide]
IC50 (V600E-B-RAF): 0.37 nM

Compound: COc1cc(-c2nc3sccn3c2-c2ccnc(NCCCNS(=O)(=O)c3ccc(F)cc3)n2)ccc1F [Compound 37III, 4-Fluoro-N-(3-((4-(6-(4-fluoro-3-methoxyphenyl)imidazo[2,1-b]thiazol-5-yl)pyrimidin-2-yl)amino)propyl)benzenesulfonamide]
IC50 (B-RAF): 8.8 nM
IC50 (C-RAF): 13.8 nM
IC50 (V600E-B-RAF): 1.66 nM

Compound: O=S(=O)(NCCNc1nccc(-c2c(-c3ccc(F)c(O)c3)nc3occn23)n1)c1ccc(F)cc1 [64 IV, 4-fluoro-N-(2-(4-(6-(4-fluoro-3-hydroxyphenyl)imidazo[2,1-b]oxazol-5-yl)pyrimidin-2-ylamino)ethyl)benzenesulfonamide]
IC50 (V600E-B-RAF): 0.36 nM

The next lines start with the values.

IC50 (V600E-B-RAF): 0.27 nM
Compound: O=S(=O)(NCCCNc1nccc(-c2c(-c3ccc(F)c(O)c3)nc3sccn23)n1)c1ccc(Cl)cc1 [Compound 48III, 4-chloro-N-(3-(4-(6-(4-fluoro-3-hydroxyphenyl)imidazo[2,1-b]thiazol-5-yl)pyrimidin-2-ylamino)propyl)benzenesulfonamide]

IC50 (V600E-B-RAF): 0.08 nM
Compound: COc1ccc(S(=O)(=O)NCCCNc2nccc(-c3c(-c4ccc(F)c(O)c4)nc4occn34)n2)cc1 [72 IV, N-(3-(4-(6-(4-fluoro-3-hydroxyphenyl)imidazo[2,1-b]oxazol-5-yl)pyrimidin-2-ylamino)propyl)-4-methoxybenzenesulfonamide]

Inhibitory effect against enzymatic activity of B-RAF, in words (B-RAF): excellent inhibitory effects
Inhibitory effect against enzymatic activity of C-RAF, in words (C-RAF): excellent inhibitory effects
Inhibitory effect against enzymatic activity of V600E-RAF, in words (V600E-B-RAF): excellent inhibitory effects
Compound: O=S(=O)(NCCNc1nccc(-c2c(-c3cccc(O)c3)nc3sccn23)n1)c1ccc(F)cc1 [Compound 25III, 4-Fluoro-N-(2-((4-(6-(3-hydroxylphenyl)imidazo[2,1-b]thiazol-5-yl)pyrimidin-2-yl)amino)ethyl)benzenesulfonamide]

Inhibitory effect against enzymatic activity of B-RAF, in words (B-RAF): excellent inhibitory effects
Inhibitory effect against enzymatic activity of C-RAF, in words (C-RAF): excellent inhibitory effects
Inhibitory effect against enzymatic activity of V600E-RAF, in words (V600E-B-RAF): excellent inhibitory effects
Compound: O=S(=O)(NCCCNc1nccc(-c2c(-c3cccc(O)c3)nc3sccn23)n1)c1ccc(F)cc1 [Compound 31III, 4-Fluoro-N-(3-((4-(6-(3-hydroxylphenyl)imidazo[2,1-b]thiazol-5-yl)pyrimidin-2-yl)amino)propyl)benzenesulfonamide]

Inhibitory effect against enzymatic activity of B-RAF, in words (B-RAF): excellent inhibitory effects
Inhibitory effect against enzymatic activity of C-RAF, in words (C-RAF): excellent inhibitory effects
IC50 (C-RAF): 2.95 nM
Inhibitory effect against enzymatic activity of V600E-RAF, in words (V600E-B-RAF): excellent inhibitory effects
Compound: CN1CCN(CCNc2nccc(-c3c(-c4cccc(O)c4)nc4occn34)n2)S1(=O)=O [Compound 1II, 2-(2-((4-(6-(3-Hydroxylphenyl)imidazo[2,1-b]oxazol-5-yl)pyrimidin-2-yl)amino)ethyl)-5-methyl-1,2,5-thiadiazolidine 1,1-dioxide]

IC50 (V600E-B-RAF): 0.05 nM
Compound: COc1ccc(S(=O)(=O)NCCCNc2nccc(-c3c(-c4ccc(F)c(O)c4)nc4sccn34)n2)cc1 [Compound 50III, N-(3-(4-(6-(4-fluoro-3-hydroxyphenyl)imidazo[2,1-b]thiazol-5-yl)pyrimidin-2-ylamino)propyl)-4-methoxybenzenesulfonamide]

IC50 (V600E-B-RAF): 0.16 nM
Compound: O=S(=O)(NCCCNc1nccc(-c2c(-c3ccc(F)c(O)c3)nc3occn23)n1)c1ccccc1 [73 IV, N-(3-(4-(6-(4-fluoro-3-hydroxyphenyl)imidazo[2,1-b]oxazol-5-yl)pyrimidin-2-ylamino)propyl)benzenesulfonamide]

IC50 (V600E-B-RAF): 0.15 nM
Compound: O=S(=O)(NCCNc1nccc(-c2c(-c3ccc(F)c(O)c3)nc3sccn23)n1)c1ccccc1 [Compound 46III, N-(2-(4-(6-(4-fluoro-3-hydroxyphenyl)imidazo[2,1-b]thiazol-5-yl)pyrimidin-2-ylamino)ethyl)benzenesulfonamide]

IC50 (V600E-B-RAF): 1.89 nM
Compound: COc1cc(-c2nc3sccn3c2-c2ccnc(NCCCNS(=O)(=O)c3ccc(Cl)cc3)n2)ccc1F [Compound 38III, 4-chloro-N-(3-(4-(6-(4-fluoro-3-methoxyphenyl)imidazo[2,1-b]thiazol-5-yl)pyrimidin-2-ylamino)propyl)benzenesulfonamide]

IC50 (V600E-B-RAF): 0.36 nM
Compound: O=S(=O)(NCCCNc1nccc(-c2c(-c3ccc(F)c(O)c3)nc3sccn23)n1)c1ccc(F)cc1 [Compound 42III, 4-Fluoro-N-(3-((4-(6-(4-fluoro-3-hydroxyphenyl)imidazo[2,1-b]thiazol-5-yl)pyrimidin-2-yl)amino)propyl)benzenesulfonamide]

IC50 (V600E-B-RAF): 6.96 nM
Compound: O=S(=O)(NCCNc1nccc(-c2c(-c3ccc(F)c(O)c3)nc3sccn23)n1)c1ccc(Cl)cc1 [Compound 43III, 4-chloro-N-(2-(4-(6-(4-fluoro-3-hydroxyphenyl)imidazo[2,1-b]thiazol-5-yl)pyrimidin-2-ylamino)ethyl)benzenesulfonamide]
